According to ChEMBL document CHEMBL1137285, “1-Alkyl-2-aryl-4-(1-naphthoyl)pyrroles: new high affinity ligands for the cannabinoid CB1 and CB2 receptors” (Bioorg Med Chem Lett, 2006):

Key:
Cannabinoid receptor 2 = Cannabinoid receptor 2 (Homo sapiens, UniProt P34972); assay: Displacement of [3H]CP-55940 from human cloned CB2 receptor
Cannabinoid receptor 1 = Cannabinoid receptor 1 (Rattus norvegicus, UniProt P20272); assay: Displacement of [3H]CP-55940 from CB1 receptor in rat brain; type: tissue-based
Sequence of Cannabinoid receptor 1 (P20272 whole entry): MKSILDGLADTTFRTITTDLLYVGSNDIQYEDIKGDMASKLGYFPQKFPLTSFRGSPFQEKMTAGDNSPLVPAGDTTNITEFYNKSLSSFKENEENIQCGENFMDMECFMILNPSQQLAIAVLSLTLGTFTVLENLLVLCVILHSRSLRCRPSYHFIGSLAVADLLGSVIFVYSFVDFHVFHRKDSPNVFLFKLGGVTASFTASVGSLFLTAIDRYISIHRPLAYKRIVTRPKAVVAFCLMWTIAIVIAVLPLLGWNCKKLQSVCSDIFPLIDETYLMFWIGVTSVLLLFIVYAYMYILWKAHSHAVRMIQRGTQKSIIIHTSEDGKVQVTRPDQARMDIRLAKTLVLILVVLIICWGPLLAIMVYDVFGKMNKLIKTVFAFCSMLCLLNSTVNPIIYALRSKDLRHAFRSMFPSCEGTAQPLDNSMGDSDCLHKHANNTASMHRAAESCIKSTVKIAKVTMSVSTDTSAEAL

Sequence of Cannabinoid receptor 2 (P34972 whole entry): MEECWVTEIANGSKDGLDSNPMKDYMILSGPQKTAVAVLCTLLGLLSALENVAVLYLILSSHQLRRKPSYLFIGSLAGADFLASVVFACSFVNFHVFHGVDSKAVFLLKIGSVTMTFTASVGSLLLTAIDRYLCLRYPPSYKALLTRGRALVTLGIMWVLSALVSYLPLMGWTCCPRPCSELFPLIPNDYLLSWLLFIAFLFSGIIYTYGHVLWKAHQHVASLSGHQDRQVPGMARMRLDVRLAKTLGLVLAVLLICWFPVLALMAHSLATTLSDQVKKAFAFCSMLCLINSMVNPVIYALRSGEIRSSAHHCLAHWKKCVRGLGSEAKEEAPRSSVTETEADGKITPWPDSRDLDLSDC

Row | Structure (SMILES) | Ki (Cannabinoid receptor 2) [nM] | Ki (Cannabinoid receptor 1) [nM]
1 | CCCCCn1cc(C(=O)c2cccc3ccccc23)cc1-c1ccc(OC)cc1 | 41 | 285
2 | CCCCCn1cc(C(=O)c2cccc3ccccc23)cc1-c1cccnc1 | 24 | 191
3 | CCCCCn1cc(C(=O)c2cccc3ccccc23)cc1-c1ccccc1OC | 20 | 29
4 | CCCCCCCn1cc(C(=O)c2cccc3ccccc23)cc1-c1ccccc1 | 62 | 21
5 | CCCCCn1cc(C(=O)c2cccc3ccccc23)cc1-c1ccc(F)cc1 | 33 | 41
6 | CCCCCn1cc(C(=O)c2cccc3ccccc23)cc1-c1cccc(C(F)(F)F)c1 | 71 | 245
7 | CCCCCn1cc(C(=O)c2cccc3ccccc23)cc1-c1ccc(Cl)cc1 | 25 | 276
8 | CCCCCn1cc(C(=O)c2cccc3ccccc23)cc1-c1ccccc1Cl | 5.2 | 7.9
9 | CCCCCn1cc(C(=O)c2cccc3ccccc23)cc1-c1ccccc1 | 6.4 | 14
10 | CCCCCn1cc(C(=O)c2cccc3ccccc23)cc1-c1ccccc1CC | 3.4 | 17
11 | CCCCCn1cc(C(=O)c2cccc3ccccc23)cc1-c1cccc(OC)c1 | 23 | 53
12 | CCCCCn1cc(C(=O)c2cccc3ccccc23)cc1-c1ccc(C(F)(F)F)cc1 | 53 | 218
13 | CCCCCn1cc(C(=O)c2cccc3ccccc23)cc1-c1ccccc1CCCC | 69 | 60
14 | CCCCCn1cc(C(=O)c2cccc3ccccc23)cc1-c1ccccc1C | 4 | 5.6
15 | CCCCCn1cc(C(=O)c2cccc3ccccc23)cc1-c1ccc(C)cc1 | 18 | 130
16 | CCCCn1cc(C(=O)c2cccc3ccccc23)cc1-c1ccccc1 | 15 | 60
17 | CCCCCCn1cc(C(=O)c2cccc3ccccc23)cc1-c1ccccc1 | 7.1 | 11
18 | CCCCCn1cc(C(=O)c2cccc3ccccc23)cc1-c1ccc(CC)cc1 | 29 | 34
19 | CCCCCn1cc(C(=O)c2cccc3ccccc23)cc1-c1cccc([N+](=O)[O-])c1 | 41 | 100
20 | CCCCCn1cc(C(=O)c2cccc3ccccc23)cc1-c1cccc2ccccc12 | 49 | 41
21 | CCCCCn1cc(C(=O)c2cccc3ccccc23)cc1-c1ccccc1F | 3.3 | 7.7
22 | CCCCCn1cc(C(=O)c2cccc3ccccc23)cc1-c1cccc(F)c1 | 9.1 | 16
23 | CCCn1cc(C(=O)c2cccc3ccccc23)cc1-c1ccccc1 | 104 | 404
24 | CCCCCn1cc(C(=O)c2cccc3ccccc23)cc1-c1cccc(C)c1 | 39 | 67
25 | CCCCCn1cc(C(=O)c2cccc3ccccc23)cc1-c1ccccc1C(F)(F)F | 8.2 | 77
26 | CCCCCn1cc(C(=O)c2cccc3ccccc23)cc1-c1cccc(Cl)c1 | 16 | 70
27 | CCCCCn1cc(C(=O)c2cccc3ccccc23)cc1-c1ccc(CCCC)cc1 | 64 | 42
28 | CCCCCn1cc(C(=O)c2cccc3ccccc23)cc1-c1ccc2ccccc2c1 | 169 | 333
